# Legend:
# [1] = Parts B and C pooled (n=59): safety; details: in vivo
# Description: Fifty-five of the 59 subjects (93.2%) experienced an AE during the study, of which 62.7% of AEs (n=37) were suspected to be related to the compound of Formula I treatment. Most frequently reported AEs related to the compound of Formula I included thrombocytopenia, neutropenia, nausea, diarrhea, pruritus, fatigue and myalgia. The compound of Formula I-related AEs was generally low grade and resolved with drug hold or dose reduction. […] The AEs were distributed across all the dosing cohorts without any safety trends or association with dose(s). The DLTs (except for 1 event of fatal intracranial hemorrhage) were non-serious AEs and managed well by dose delays and/or reductions. […] A total of 5 subjects died during the study or within 30 days after the last dose of the study drug, which is not unexpected given that all patients enrolled in the study had advanced and heavily pretreated CML. The AEs related to the compound of Formula I treatment were consistent with the advanced CML population with multiple comorbidities and concomitant medications during the study.
# [2] = tested on: Ph+ CML (CP CML, AP CML and BP CML) and Ph+ ALL; test: Phase 1/2 dose-escalation and expansion study (Part B): disease response, all subjects; format: in vivo
# Description: This was a Phase I/2, open-label, single-agent, multicenter, multi-dose, dose-escalation study in subjects with Philadelphia chromosome-positive Ph+ CML (CP CML, AP CML and BP CML) and Ph+ ALL. The primary objectives of this study were to determine the maximum tolerated dose (MTD; or recommended Phase 2 dose [RP2D]) of the compound of Formula I when administered orally and to evaluate its safety.
# For patient selection, key inclusion criteria included men or women aged ≥18 years with Eastern Cooperative Oncology Group performance status 0, 1, or 2 with Ph+ CML (CP CML, AP CML, or BP CML) who are resistant and/or intolerant to ≥3 prior TKIs, having adequate organ and immune system function as indicated by Table 09, obtained ≤2 weeks prior to the administration of the compound of Formula I. Subjects with presence of T3151 mutations were not included in the study.
# In this study, the dose-escalation cohort started with an accelerated titration study design (ATD) and shifted to a 3±3 design when subjects in the preceding ATD cohort experienced either grade 2 or higher adverse events (AEs) or dose-limiting toxicity (DLT) during Cycle 1 that was not clearly and incontrovertibly related to the underlying disease or concomitant medications. The DLT period consisted of 28 days (Cycle 1). Subjects experiencing DLTs were managed with dose delays and/or discontinuation and continued in the study until disease progression. Decisions to advance to a succeeding dose level occurred after the evaluation of safety and tolerability data for a given dose level.
# Accordingly, the eligible subjects were treated in 4-week cycles of once daily self-administration of the compound of Formula I. The administration was after an overnight fast, or after maintaining approximately 2 hours of fasting before and after the dosing in all cycles.
# For the cohorts, where the 3±3 design applies, 3 subjects were enrolled initially. If 2 of these subjects experienced a Grade 2 or more toxicity (that was not clearly and incontrovertibly related to the underlying disease or concomitant medications), subsequent cohorts were escalated according to smaller increments. Further, if there were no DLTs in the first 3 subjects, dose escalation to the next higher dose level was allowed to proceed. If 1 of the 3 subjects experienced a DLT, that dose level was expanded to 6 subjects (3 additional subjects were enrolled). If 2 subjects at a given dose level experienced a DLT, the MTD was considered to have been exceeded. The next lower dose level was expanded to 6 subjects, or if 6 subjects had already been enrolled and no more than 1 of the 6 subjects experienced a DLT, then this lower dose level was considered the MTD. Additional subjects were enrolled in dose escalation cohorts for further assessment of safety and efficacy of the compound of Formula 1 at doses that were tolerated (i.e., doses that have <2 DLTs in 6 enrolled subjects or <1 DLT in 3 enrolled subjects). Thus 204 mg was arrived at as MTD. A subject experiencing a DLT was allowed to continue therapy with a reduced dose. Subjects who experienced a DLT and recovered were treated at the next lower dose level until disease progression or other events requiring further dose reduction existed. For cohorts at Dose Level 2 or higher, a further dose reduction (i.e., up to 2 levels lower than their originally assigned dose) was implemented in the case of a further DLT or other non-DLT events requiring a dose reduction, if and when the event leading to dose reduction returned to Grade 1 or lower in severity. The reduced dose was re-escalated to the original or higher dose (i.e., the dose for which safety had been established in the dose escalation cohort) considering subject safety and response to the compound of Formula I. The subject was discontinued from treatment using the compound of Formula I, if dose reduction below 48 mg was required. […]
smiles,measurement,setting,value
"Cc1ccc(C(=O)NNC(=O)c2c(C)cccc2Cl)cc1C#Cc1cnc2ccccc2c1 [compound of Formula I, N′-(2-chloro-6-methylbenzoyl)-4-methyl-3-[2-(3-quinolyl)ethynyl]-benzohydrazide]",AEs suspected to be related to treatment,[1]; human,62.7%
same,subjects who died during the study or within 30 days after the last dose,[1]; human,5 subjects
same,subjects who experienced an AE,[1]; human,93.2%
same,subjects who experienced an SAE,[1]; human,34%
same,subjects with grade 3 or higher-grade AEs,[1]; human,Approximately 64.4%
same,relatedness of cardiac AEs,[1],considered unrelated
same,major molecular response,[2]; 18 of the 41 enrolled subjects,43.9%
same,Major cytogenetic response (MCyR) as best response,[2]; 19 subjects enrolled at 174 mg,10 subjects
same,complete cytogenetic response (CCyR),[2]; 19 subjects enrolled at 174 mg,9 subjects
same,major hematological response (MaHR) as best response,[2]; 19 subjects enrolled at 174 mg,all subjects
same,major molecular response as best response,[2]; 19 subjects enrolled at 174 mg,4 subjects
same,partial cytogenetic response (PCyR),[2]; 19 subjects enrolled at 174 mg,1 subjects
same,complete cytogenetic response,[2]; 23 out of 41 enrolled subjects,56.1%
same,complete hematologic response,"[2]; 29 out of 41 enrolled subjects, refractory, 2 or more prior TKIs",70.7%
same,individual subject outcome,"[2]; AP CML, 48 mg escalated, ~24 months, daily dose of 174 mg",attained MCyR
same,individual subject outcome,"[2]; CP CML, 12 mg escalated to 174 mg",achieved and maintained CCyR at doses ≥48 mg
same,individual subject outcome,"[2]; CP CML, 24 mg escalated to 126 mg and 174 mg",maintain CCyR and molecular response between MMR and M2
same,individual subject outcome,"[2]; CP CML, 126 mg reduced to 90 and 66 mg (thrombocytopenia), re-escalated to 126 mg and 174 mg",tolerated the re-escalated higher dose well
same,individual subject outcome,"[2]; CP CML, 174 mg reduced to 126 mg (grade 3/4 deranged pancreatic enzymes)",complete cytogenetic response and major molecular response
same,individual subject outcome,"[2]; CP CML, 204 mg reduced to 174 mg (memory loss)",maintains a complete cytogenetic response and major molecular response
same,individual subject outcome,"[2]; CP CML, 204 mg reduced to 174 mg (severe thrombocytopenia)",partial cytogenetic response and improved molecular response
same,individual subject outcome,"[2]; CP CML, 3 prior TKIs incl. Ponatinib, 48 mg escalated to 174 mg",re-attained major molecular and cytogenetic responses
same,individual subject outcome,"[2]; CP CML, 4 prior TKIs, 48 mg escalated to 90 mg and 174 mg",maintain complete cytogenetic and major molecular responses
same,individual subject outcome,"[2]; CP CML, 4 prior TKIs, 66 mg escalated to 90 mg",Ph+ cells decreased to minimal cytogenetic response
same,individual subject outcome,"[2]; CP CML, 6 prior TKIs, 174 mg escalated to 204 mg",improvement in cytogenetic response to minor cytogenetic response
same,individual subject outcome,"[2]; CP CML, F317L, 66 mg reduced to 48 mg (back pain of grade 2)",maintained CCyR and MMR at 48 mg dose for ˜2.5 years
same,individual subject outcome,"[2]; CP CML, M351T, 174 mg escalated to 204 mg at cycle 7, cycle 22",maintaining a complete hematological response and stable disease
same,individual subject outcome,"[2]; donor one CP CML, 2 prior TKIs, 174 mg escalated to 204 mg",maintaining a hematological response
same,individual subject outcome,"[2]; donor two CP CML, 2 prior TKIs, 174 mg escalated to 204 mg",improvement in cytogenetic response to partial cytogenetic response and improved molecular response
same,highest efficacious dose,"[2]; human, in vivo",204 mg
same,lowest dose observed to be therapeutically efficacious,"[2]; human, in vivo",48 mg
same,"best cytogenetic response, Ph+","[2]; one AP CML subject, Y253F, 48 mg escalated to 204 mg, 39 cycles, PCyR",10%
same,"best molecular response, BCR-ABL","[2]; one AP CML subject, Y253F, at 204 mg, 36 cycles",0.931 % IS
same,individual subject outcome,"[2]; subject at 66 mg, F317L with ACA",CCyR in cycle 7 and MMR in cycle 4
same,duration of maintained disease response at the lower dose,"[2]; subject with F317L, reduced from 66 mg to 48 mg",about 2.5 years

# From US20260069584A1, “METHODS OF TREATING CHRONIC MYELOID LEUKEMIA USING THE TYROSINE KINASE INHIBITOR VODOBATINIB” (Sun Pharma Advanced Research Company Ltd., priority 2022, published 2026)
